Experimental data taken from US11155558B2, “Dual mode of action soluble guanylate cyclase activators and phosphodiesterase inhibitors and uses thereof” (TOPADUR PHARMA AG, priority 2017, dated 2021).
pIC50: −log10 of the molar value.

system: Human Pulmonary Artery Smooth Muscle Cells (hPASMC); assay: Measurements of cGMP in human pulmonary artery smooth muscle cells (hPASMC); assay type: cell-based; conditions: 30 min incubation, 0.1 pM-1 uM, compared to sildenafil, mirodenafil or compound 5 (FIG. 3)
Protocol: Human Pulmonary Artery Smooth Muscle Cells (hPASMC) were purchased from Clonetics™ Lonza (Lonza, reference number CC-2581) and cultured in Clonetics™ smooth muscle growth medium (Clonetics™ SmGM™-2 with BulletKit™ growth factor supplements (Lonza, reference number CC-3182) at 37° C. in 5% CO2. Culture medium was replaced each 48 hours. Cells were grown in 75 cm^2 culture plates. 48 h before the experiments, cells were trypsinized (Trypsin kit One ReagentPack™ (CC-5034), Lonza) and plated in 96 well plates precoated with collagen I at 10000 cells per well. 24 h before the experiments culture medium was replaced by serum-reduced (0.5% FBS) medium. […]
Measurements of intracellular cGMP were performed using the Amersham cGMP EIA System (GE Healthcare, RPN226) following the instructions of the manufacturer. […] Briefly, incubations were terminated by adding Amersham's lysis buffer 1 and cells left for 10 min under agitation to ensure complete lysis. cGMP in samples was then acetylated using triethylamine and acetic anhydride and determined by a competitive ELISA. The ELISA is based on the competition between acetylated cGMP in cell culture lysates and a peroxidase-labelled cGMP conjugate for limited binding sites on a cGMP specific antiserum immobilized on pre-coated 96 well MTP. cGMP was determined based on a standard curve. […]

| SMILES | efficacy in increasing intracellular cGMP level |
| --- | --- |
| CCCOc1ccc(S(=O)(=O)N2CCN(CCO[N+](=O)[O-])CC2)cc1-c1nc2c(CCC)cn(CC)c2c(=O)[nH]1 [Compound 1i, 2-(4-((3-(5-ethyl-4-oxo-7-propyl-4,5-dihydro-3H-pyrrolo[3,2-d]pyrimidin-2-yl)-4-propoxyphenyl)sulfonyl)piperazin-1-yl)ethyl nitrate] | significantly higher efficacy in increasing cGMP level |

target: recombinant human (rh) PDE5A (Homo sapiens (Human), UniProt O76074); assay: Phosphodiesterase-5 activity assay (Example 110), radiometric SPA; assay type: biochemical; conditions: not given
Protocol: The inhibition of recombinant human (rh) PDE5A by test compounds is measured in a radiometric assay based on Scintillation Proximity Assay (SPA) technology. The substrate [3H]cGMP/cGMP is hydrolysed to [3H] 5′ GMP/5′ GMP contingent on the activity of rhPDE5A. The ensuing [3H] 5′ GMP/5′ GMP but not [3H] cGMP/cGMP binds to SPA yttrium silicate beads in the presence of Zn^++ stimulating the scintillant within the bead to emit light that is detected by a ß-counter. The assay is performed in a 96 well format.
The assay is done in 20 mM Tris HCl pH 7.4, 5 mM MgCl2, […] cGMP/[3H] cGMP (about 60000 dpm/well) substrate with rhPDE5A1 (GST tagged, SIGMA E9034) added to an amount not exceeding 20% cGMP hydrolysis within 20 min in Tris 20 mM pH 7.4 supplemented with 0.01% bovine serum albumin (BSA) in the presence of test compounds or vehicle (0.1% DMSO). The final assay volume amounts to 100 μl and the reaction is run for 20 min at 37° C.
The hydrolysis of [3H] cGMP/cGMP by rhPDE5A is terminated by adding SPA beads at 50 µl/well (Perkin Elmer, RPNQ0024), pre-diluted in water as per manufacturer's instructions and supplemented with 3-isobutyl-1-methylxanthine (1 mM). Beads are allowed to sediment for at least 30 min before measurement in a Wallac Microbeta 2 (Perkin Elmer).
In general, test compounds are added at seven different concentrations from […] in log steps. […] Results (IC50) are given as the mean from at least two independent experiments each performed in triplicate.

| SMILES | pIC50 |
| --- | --- |
| CCCOc1ccc(S(=O)(=O)N2CCC([C@H](CO[N+](=O)[O-])O[N+](=O)[O-])CC2)cc1-c1nc2c(CCC)cn(CC)c2c(=O)[nH]1 [Compound 1k, (R)-1-(1-((3-(5-ethyl-4-oxo-7-propyl-4,5-dihydro-3H-pyrrolo[3,2-d]pyrimidin-2-yl)-4-propoxyphenyl)sulfonyl)piperidin-4-yl)ethane-1,2-diyl dinitrate] | 8.46 |
| CCCOc1ccc(S(=O)(=O)N2CCC(CO[N+](=O)[O-])CC2)cc1-c1nc2c(CCC)cn(C)c2c(=O)[nH]1 [Compound 3k, (1-((3-(5-methyl-4-oxo-7-propyl-4,5-dihydro-3H-pyrrolo[3,2-d]pyrimidin-2-yl)-4-propoxyphenyl)sulfonyl)piperidin-4-yl)methyl nitrate] | 7.82 |
| CCCOc1ccc(S(=O)(=O)N2CCN(CCCO[N+](=O)[O-])CC2)cc1-c1nc2c(CCC)cn(C)c2c(=O)[nH]1 [Compound 3d, 3-(4-((3-(5-methyl-4-oxo-7-propyl-4,5-dihydro-3H-pyrrolo[3,2-d]pyrimidin-2-yl)-4-propoxyphenyl)sulfonyl)piperazin-1-yl)propyl nitrate] | 8.05 |
| CCCOc1ccc(S(=O)(=O)N2CCC(CO[N+](=O)[O-])(CO[N+](=O)[O-])CC2)cc1-c1nc2c(CCC)cn(C)c2c(=O)[nH]1 [Compound 3i, (1-((3-(5-methyl-4-oxo-7-propyl-4,5-dihydro-3H-pyrrolo[3,2-d]pyrimidin-2-yl)-4-propoxyphenyl)sulfonyl)piperidine-4,4-diyl)bis(methylene) dinitrate] | 7.85 |
| CCCOc1ccc(S(=O)(=O)N2CCC([C@@H](O)CO[N+](=O)[O-])CC2)cc1-c1nc2c(CCC)cn(C)c2c(=O)[nH]1 [Compound 3l, (R)-2-hydroxy-2-(1-((3-(5-methyl-4-oxo-7-propyl-4,5-dihydro-3H-pyrrolo[3,2-d]pyrimidin-2-yl)-4-propoxyphenyl)sulfonyl)piperidin-4-yl)ethyl nitrate] | 8.70 |
| CCCOc1ccc(S(=O)(=O)N2CCC([C@H](CO[N+](=O)[O-])O[N+](=O)[O-])CC2)cc1-c1nc2c(CCC)c(/C=N/O)n(C)c2c(=O)[nH]1 [Compound 3o, (R,E)-1-(1-((3-(6-((hydroxyimino)methyl)-5-methyl-4-oxo-7-propyl-4,5-dihydro-3H-pyrrolo[3,2-d]pyrimidin-2-yl)-4-propoxyphenyl)sulfonyl)piperidin-4-yl)ethane-1,2-diyl dinitrate] | 7.89 |
| CCCOc1ccc(S(=O)(=O)N2C[C@H](CCO[N+](=O)[O-])N(C)[C@@H](CCO[N+](=O)[O-])C2)cc1-c1nc2c(CCC)cn(CC)c2c(=O)[nH]1 [Compound 1o, ((2S,6S)-4-((3-(5-ethyl-4-oxo-7-propyl-4,5-dihydro-3H-pyrrolo[3,2-d]pyrimidin-2-yl)-4-propoxyphenyl)sulfonyl)-1-methylpiperazine-2,6-diyl)bis(ethane-2,1-diyl) dinitrate] | 8.15 |
| CCCOc1ccc(S(=O)(=O)N2C[C@@H](CCO[N+](=O)[O-])N(C)[C@@H](CCO[N+](=O)[O-])C2)cc1-c1nc2c(CCC)cn(CC)c2c(=O)[nH]1 [Compound 1m, ((2S,6R)-4-((3-(5-ethyl-4-oxo-7-propyl-4,5-dihydro-3H-pyrrolo[3,2-d]pyrimidin-2-yl)-4-propoxyphenyl)sulfonyl)-1-methylpiperazine-2,6-diyl)bis(ethane-2,1-diyl) dinitrate] | 8.07 |
| CCCOc1ccc(S(=O)(=O)N2CCC([C@@H](CO[N+](=O)[O-])O[N+](=O)[O-])CC2)cc1-c1nc2c(CCC)cn(CC)c2c(=O)[nH]1 [Compound 1l, (S)-1-(1-((3-(5-ethyl-4-oxo-7-propyl-4,5-dihydro-3H-pyrrolo[3,2-d]pyrimidin-2-yl)-4-propoxyphenyl)sulfonyl)piperidin-4-yl)ethane-1,2-diyl dinitrate] | 8.49 |
| CCCOc1ccc(S(=O)(=O)N2CCC([C@@H](CO[N+](=O)[O-])O[N+](=O)[O-])CC2)cc1-c1nc2c(CCC)cn(C)c2c(=O)[nH]1 [Compound 3h, (S)-1-(1-((3-(5-methyl-4-oxo-7-propyl-4,5-dihydro-3H-pyrrolo[3,2-d]pyrimidin-2-yl)-4-propoxyphenyl)sulfonyl)piperidin-4-yl)ethane-1,2-diyl dinitrate] | 8.43 |
| CCCOc1ccc(S(=O)(=O)N2CCC([C@@H](CO[N+](=O)[O-])O[N+](=O)[O-])CC2)cc1-c1nc2c(CCC)c(/C=N/O)n(C)c2c(=O)[nH]1 [Compound 3p, (S,E)-1-(1-((3-(6-((hydroxyimino)methyl)-5-methyl-4-oxo-7-propyl-4,5-dihydro-3H-pyrrolo[3,2-d]pyrimidin-2-yl)-4-propoxyphenyl)sulfonyl)piperidin-4-yl)ethane-1,2-diyl dinitrate] | 7.92 |
| CCCOc1ccc(S(=O)(=O)N2CCN(CCCO[N+](=O)[O-])CC2)cc1-c1nc2c(CCC)c(/C=N/O)n(C)c2c(=O)[nH]1 [Compound 3f, (E)-3-(4-((3-(6-((hydroxyimino)methyl)-5-methyl-4-oxo-7-propyl-4,5-dihydro-3H-pyrrolo[3,2-d]pyrimidin-2-yl)-4-propoxyphenyl)sulfonyl)piperazin-1-yl)propyl nitrate] | 7.38 |
| CCCOc1ccc(S(=O)(=O)N2CCN(CCO[N+](=O)[O-])CC2)cc1-c1nc2c(CCC)c(/C=N/O)n(C)c2c(=O)[nH]1 [Compound 3e, (E)-2-(4-((3-(6-((hydroxyimino)methyl)-5-methyl-4-oxo-7-propyl-4,5-dihydro-3H-pyrrolo[3,2-d]pyrimidin-2-yl)-4-propoxyphenyl)sulfonyl)piperazin-1-yl)ethyl nitrate] | 7.92 |
| CCCOc1ccc(S(=O)(=O)N2CCC([C@H](CO[N+](=O)[O-])O[N+](=O)[O-])CC2)cc1-c1nc2c(CCC)cn(C)c2c(=O)[nH]1 [Compound 3g, (R)-1-(1-((3-(5-methyl-4-oxo-7-propyl-4,5-dihydro-3H-pyrrolo[3,2-d]pyrimidin-2-yl)-4-propoxyphenyl)sulfonyl)piperidin-4-yl)ethane-1,2-diyl dinitrate] | 7.64 |
| CCCOc1ccc(S(=O)(=O)N2CCC(CCO[N+](=O)[O-])(CCO[N+](=O)[O-])CC2)cc1-c1nc2c(CCC)cn(CC)c2c(=O)[nH]1 [Compound 1n, (1-((3-(5-ethyl-4-oxo-7-propyl-4,5-dihydro-3H-pyrrolo[3,2-d]pyrimidin-2-yl)-4-propoxyphenyl)sulfonyl)piperidine-4,4-diyl)bis(ethane-2,1-diyl) dinitrate] | 8.57 |

same assay, conditions: asterisk: assay described in Example 110, rhPDE5A1; read-out: IC50

| SMILES | pIC50 |
| --- | --- |
| CCCOc1ccc(S(=O)(=O)N2CCC([C@@H](O)CO[N+](=O)[O-])CC2)cc1-c1nc2c(CCC)c(/C=N/O)n(C)c2c(=O)[nH]1 [Compound 3q, (R,E)-2-hydroxy-2-(1-((3-(6-((hydroxyimino)methyl)-5-methyl-4-oxo-7-propyl-4,5-dihydro-3H-pyrrolo[3,2-d]pyrimidin-2-yl)-4-propoxyphenyl)sulfonyl)piperidin-4-yl)ethyl nitrate] | 8.48 |

target: PDE5 enzyme isolated from human platelets (Homo sapiens (Human), UniProt O76074); assay: PDE5 assay (Example 109), formation of 5′GMP from cGMP, SPA; conditions: not given;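 also: tritiated 5′GMP counted by scintillation after SPA bead capture, enzyme reaction run 60 min at 22 °C, basal control is the mixture without enzyme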

| SMILES | pIC50 |
| --- | --- |
| CCCOc1ccc(S(=O)(=O)N2CCN(CCO[N+](=O)[O-])CC2)cc1-c1nc2c(CCC)cn(CC)c2c(=O)[nH]1 [Compound 1i, 2-(4-((3-(5-ethyl-4-oxo-7-propyl-4,5-dihydro-3H-pyrrolo[3,2-d]pyrimidin-2-yl)-4-propoxyphenyl)sulfonyl)piperazin-1-yl)ethyl nitrate] | 8.70 |

same assay, conditions: percent inhibition of control enzyme activity at 5.0E−09 M; assay of Example 109

| SMILES | % inhibition at 5.0E−09 M [%] |
| --- | --- |
| CCCOc1ccc(S(=O)(=O)N2CCN(CCO[N+](=O)[O-])CC2)cc1-c1nc2c(CCC)cn(CC)c2c(=O)[nH]1 [Compound 1i, 2-(4-((3-(5-ethyl-4-oxo-7-propyl-4,5-dihydro-3H-pyrrolo[3,2-d]pyrimidin-2-yl)-4-propoxyphenyl)sulfonyl)piperazin-1-yl)ethyl nitrate] | 60.0 |
